The text below walks through data of ChEMBL document CHEMBL1201862, “PubChem BioAssay data set” (2004).

Common to all, as to test: DTP human tumour cell line panel, 48 h
Test [1] deals with KM12.
Test [2] has as its system U-251.
The subject of test [3] is SW-620.
In test [4] the test system is UACC-62.
Test [5] concerns MOLT-4.
The test system of test [6] is NCI-H23.
The test system of test [7] is IGROV-1.
In test [8] the test system is SNB-19.
The subject of test [9] is NCI-H460.
Test [10] concerns A549.
The subject of test [11] is OVCAR-8.
Test [12] relates to A498.
In test [13] the test system is RPMI-8226.
Test [14] concerns EKVX.
Test [15] has as its system OVCAR-5.
Test [16] relates to Malme-3M.
Test [17] concerns HOP-92.
Test [18] relates to HCT-15.
Test [19] has as its system SNB-75.
The test system of test [20] is SK-MEL-28.

Usually GI50 stands for the concentration that inhibits growth by half.

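These data come from cells grown in 96-well plates and exposed to compound for 48 hours at five concentrations. GI50: concentration for 50% inhibition of growth.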 Calls of active or inactive are those of the source. Cut-off read from the data, not from the text of the source: active = GI50 up to about 1.1 µM and inactive = higher. Where only a bound is given, the exact number is not on record here.

For `Cc1[nH]n(C2=NCCN2)c(=O)c1Cc1ccccc1`, the GI50 in test [1], in [2], in test [3], in test [4], in test [5] and in test [6] was > 100 µM (inactive) in each case. Further, the GI50 in test [7], in test [8], in test [9], in test [10], in test [11] and in test [12] was > 100 µM (inactive) throughout. The GI50 is > 100 µM (inactive) in test [13]; > 100 µM (inactive) in test [14]; > 100 µM (inactive) in test [15]; > 100 µM (inactive) in test [16]; > 100 µM (inactive) in test [17]; above 100 µM in [18].
In the case of `CC1=C(C(=O)Nc2cccc(Cl)c2)C(c2ccccc2O)C(C(=O)Nc2cccc(Cl)c2)=C(C)N1`, the GI50 in test [19] was 14.9 µM (inactive); in test [1] it was 16.8 µM (inactive); in [2], 19.9 µM (inactive); in test [3] it was 18.6 µM (inactive); in test [5], 25.2 µM (inactive); in test [6], 17.3 µM (inactive). The GI50 in test [7] was 23.9 µM (inactive); in test [8], 26.1 µM (inactive); in test [9] it was 21.6 µM (inactive); in test [10], 20.2 µM (inactive); in test [11], 25.2 µM (inactive); in test [12] it was 19.5 µM (inactive). The GI50 was 20.7 µM (inactive) in [13]; 22.4 µM (inactive) in test [14]; 19.4 µM (inactive) in [15]; 19.4 µM (inactive) in test [16]; 20.1 µM (inactive) in test [17]; 17.1 µM (inactive) in test [20].
For the compound `CCOC(=O)C1=C(C)N(NC(N)=O)C2(O)CCCC(=O)C12C` (stereo not given), the GI50 in [19], in [1], in test [2], in [3], in [4] and in test [6] was > 100 µM (inactive) in each case. Also, the GI50 in test [7], in test [8], in test [10], in test [11], in [12] and in test [13] was > 100 µM (inactive) in each case. Also, the GI50 in test [15] is > 100 µM (inactive); in test [16], > 100 µM (inactive); in [17], > 100 µM (inactive); in test [20] it was > 100 µM (inactive); in test [18], above 100 µM.
In the case of `CC1(C)C(N2CCOCC2)CS1(=O)=O` (stereo not given), the GI50 in test [19] is 4.98 µM (inactive); in test [1] it was > 10 µM (inactive); in test [2] it was > 10 µM (inactive); in test [3], > 10 µM (inactive); in test [4] it was > 10 µM (inactive); in test [5] it was > 10 µM (inactive). In addition, the GI50 in test [6], in test [7], in [8], in test [9], in test [10] and in test [11] was > 10 µM (inactive) in each case. Further, the GI50 in test [12], in test [13], in [14], in test [15], in test [16] and in [17] was > 10 µM (inactive) each time. In addition, the GI50 in test [20] is > 10 µM (inactive); in test [18], above 10 µM.
With `COc1cc2cc3c4cc(OC)c(OC)cc4cc[n+]3cc2cc1OC`, the GI50 in [19] was > 89.3 µM (inactive); in test [1], > 100 µM (inactive); in test [2], 9.46 µM (inactive); in test [3], > 100 µM (inactive); in [4], > 100 µM (inactive); in [5], > 75.5 µM (inactive). Moreover, the GI50 is > 76.7 µM (inactive) in test [6]; > 100 µM (inactive) in test [7]; 15.2 µM (inactive) in test [8]; > 100 µM (inactive) in test [9]; > 100 µM (inactive) in test [10]; > 100 µM (inactive) in test [11]. Further, the GI50 in test [12], in test [13], in [14], in [15], in [16] and in test [17] was > 100 µM (inactive) in each case. For the same compound, the GI50 is > 100 µM (inactive) in test [20] and above 100 µM in test [18].
`COc1ccc(NC(=O)C(=O)C(C(=O)c2ccccc2)C2OC(=O)c3ccccc32)c([N+](=O)[O-])c1` (stereo not given): the GI50 in test [19], in [1], in test [2], in test [3], in test [4] and in test [5] was > 100 µM (inactive) throughout. Further, the GI50 in test [6], in test [7], in test [8], in test [9], in test [10] and in test [11] was > 100 µM (inactive) each time. For the same compound, the GI50 in [12], in test [13], in test [14], in [15], in [16] and in [17] was > 100 µM (inactive) throughout. For the same compound, the results for the GI50 in [20] and in test [18] were > 100 µM (inactive) and above 100 µM, respectively.
For the compound `CCOC(=O)C1=C(C)N(c2ccc(OC)cc2)C2(O)C=CC(O)=C3C(=O)c4ccccc4C(=O)C312` (stereo not given), the GI50 in test [1] is 12.9 µM (inactive); in test [2] it was 8.49 µM (inactive); in [3], 13.5 µM (inactive); in test [4], 12.5 µM (inactive); in [5], 3.89 µM (inactive); in [6] it was 16.1 µM (inactive). Besides, the GI50 in test [7] was 3.56 µM (inactive); in [8], 13 µM (inactive); in [9], 11.5 µM (inactive); in test [10], 11.1 µM (inactive); in test [11] it was 14.9 µM (inactive); in test [12], 10.5 µM (inactive). Further, the GI50 in [13] was 2.44 µM (inactive); in test [14] it was 7.43 µM (inactive); in test [15], 15.8 µM (inactive); in test [16], < 0.01 µM (active); in test [17] it was 2.25 µM (inactive); in [18], 6.71 µM.
With `Cc1cc(N(CCOS(C)(=O)=O)CCOS(C)(=O)=O)ccc1C=O`, the GI50 in test [1] was 14.7 µM (inactive); in [2], 8.36 µM (inactive); in [3] it was 0.449 µM (active); in [4], 2.43 µM (inactive); in test [5] it was 1.61 µM (inactive); in test [6], 3.68 µM (inactive). Moreover, the GI50 was 11.7 µM (inactive) in test [7]; 10.2 µM (inactive) in test [8]; 0.078 µM (active) in test [9]; 0.979 µM (active) in test [10]; 10.9 µM (inactive) in test [11]; 1.85 µM (inactive) in test [12]. The GI50 is 4.02 µM (inactive) in test [13]; 3.61 µM (inactive) in test [14]; 6.7 µM (inactive) in test [15]; 7.91 µM (inactive) in test [16]; 9.73 µM (inactive) in test [17]; 3.68 µM (inactive) in test [20]. This compound also had a 50% growth inhibitory concentration (GI50) in test [18] of 13.2 µM.
